This note sets out measurements from patent US11725000B2, “Apoptosis inhibitors” (National Institute of Biological Sciences, Beijing, priority 2017, dated 2023).

Each structure is given as a SMILES string.

One experiment deals with U2OS_Bim cells. Description: Apoptosis inhibition assay (Bim-induced apoptosis, cell viability by ATP level). The format is cell-based. The following applies: U2OS_Bim cells; means of duplicates; numbering of Tables 4a/4b. The protocol: A chemical library containing 200000 compounds was screened according to the following procedure: U2OS_Bim cells (a cell line in which the BH3-only protein Bim can be inducibly expressed by the addition of Doxycycline to the growth medium)^[2] were plated in 384-well plates with 30 μl medium at a density of 500 cells per well. 16 hrs after plating, test compounds were transferred from stock plates to the assay plates with the cultured cells. Positive control (20 μM zVAD) and negative control (DMSO) were added to every plate. 1 hr after compound treatment, 0.1 ug/mL Doxycyclin (DOX) was added to induce the expression of the Bim protein. After 24 hrs, cell viability was determined by measuring the ATP levels using a Cell Titer-Glo kit (Promega, G7570) according to the manufacturer's instructions. Luminescence was recorded with a PerkinElmer EnSpire Multimode Plate Reader. Compounds that could rescue cell viability to a level above 50% were selected; these compounds were then screened a second time for assurance.
U2OS_Bim or U2OS_tBid cells were plated at a density of 3000 cells per well in 96-well plates. 24 hrs later, cells were treated with experimental compounds, zVAD (positive control) and DMSO (Negative control) for one hour. The cells were then treated with 0.1 μg/mL DOX to trigger apoptosis. 24 hours after the addition of DOX, cell viability was determined by measuring the ATP levels using a Cell Titer-Glo kit. Cell survival rate was calculated.
U2OS_Bim cells (a U2OS stable cell line transfected with a Bim transgene) were cultured in DMEM culture medium (Gibico). On day one, U2OS_Bim cells were plated in 96-well plates at a density of 3000 cells per well. On day two, cells were pretreated with compounds for one hour. Then cells were treated with 0.1 μg/mL doxycycline (DOX) to trigger apoptosis. 24 hours after DOX treatment, cell viability was determined by measuring the ATP levels using the Cell Titer-Glo kit (G7570, Promega), according to the manufacturer's instructions. Luminescence was recorded with a PerkinElmer EnSpire Multimode Plate Reader. Survived cells were normalized to those cells treated with DMSO. zVAD (20 μM) was used as a positive control. Activity data for compounds […] are represented as means f standard deviation of duplicates; activity data for compounds 187-274 are estimated based on preliminary results.
`C#CCOc1cc(Cn2cc(-c3cc(C(F)(F)F)nc(S(C)(=O)=O)n3)ccc2=O)ccc1OC` [Compound 129, 1-(4-methoxy-3-(prop-2-yn-1-yloxy)benzyl)-5-(2-(methylsulfonyl)-6-(trifluoromethyl)pyrimidin-4-yl)pyridin-2 (1H)-one] registered an EC50 of 1 to 1000 nM.
Still for that read-out and setting: the same measure for `C#CCOc1ccc(Cn2cc(-c3cc(C(F)(F)F)nc(S(C)(=O)=O)n3)ccc2=O)cc1OC` [Compound 130, 1-(3-methoxy-4-(prop-2-yn-1-yloxy)benzyl)-5-(2-(methylsulfonyl)-6-(trifluoromethyl)pyrimidin-4-yl)pyridin-2 (1H)-one]: 1 to 1000 nM.

Still in this experiment, the particulars now being: U2OS_Bim cells; means of duplicates; numbering of Tables 4a/4b; read-out: EC50.
With `CS(=O)(=O)c1nc(-c2ccc(=O)n(Cc3cccc(Br)c3)c2)cc(C(F)(F)F)n1` [Compound 107, 1-(3-bromobenzyl)-5-(2-(methylsulfonyl)-6-(trifluoromethyl)pyrimidin-4-yl)pyridin-2 (1H)-one], the concentration giving a half-maximal response (EC50) lay within 1 to 1000 nM.
Same read-out and setting: the same measure for `CS(=O)(=O)c1nc(-c2ccc(=O)n(Cc3cccc(O)c3)c2)cc(C(F)(F)F)n1` [Compound 108, 1-(3-hydroxybenzyl)-5-(2-(methylsulfonyl)-6-(trifluoromethyl)pyrimidin-4-yl)pyridin-2 (1H)-one]: 1000 to 10000 nM; for `COc1cccc(Cn2cc(-c3cc(C(F)(F)F)nc(S(C)(=O)=O)n3)ccc2=O)c1` [Compound 109, 1-(3-methoxybenzyl)-5-(2-(methylsulfonyl)-6-(trifluoromethyl)pyrimidin-4-yl)pyridin-2 (1H)-one]: 1 to 1000 nM.
Still for that read-out and setting: the same measure for `COc1ccc(Cn2cc(-c3cc(C(F)(F)F)nc(S(C)(=O)=O)n3)ccc2=O)cc1` [Compound 110, 1-(4-Methoxybenzyl)-5-(2-(methylsulfonyl)-6-(trifluoromethyl)pyrimidin-4-yl)pyridin-2 (1H)-one]: 1 to 1000 nM; for `COc1ccc(Cn2cc(-c3cc(C(F)(F)F)nc([S+](C)[O-])n3)ccc2=O)cc1` (stereo not drawn) [Compound 111, 1-(4-Methoxybenzyl)-5-(2-(methylsulfinyl)-6-(trifluoromethyl)pyrimidin-4-yl)pyridin-2 (1H)-one]: 1 to 1000 nM.
On the same count and under the same terms, then `CCOc1cccc(Cn2cc(-c3cc(C(F)(F)F)nc(S(C)(=O)=O)n3)ccc2=O)c1` [Compound 112, 1-(3-ethoxybenzyl)-5-(2-(methylsulfonyl)-6-(trifluoromethyl)pyrimidin-4-yl)pyridin-2 (1H)-one], with 1 to 1000 nM; and `CCCOc1cccc(Cn2cc(-c3cc(C(F)(F)F)nc(S(C)(=O)=O)n3)ccc2=O)c1` [Compound 113, 5-(2-(methylsulfonyl)-6-(trifluoromethyl)pyrimidin-4-yl)-1-(3-propoxybenzyl)pyridin-2 (1H)-one], with 1 to 1000 nM; and `CCCOc1cccc(Cn2cc(-c3cc(C(F)(F)F)nc([S+](C)[O-])n3)ccc2=O)c1` (stereo not drawn) [Compound 114, 5-(2-(methylsulfinyl)-6-(trifluoromethyl)pyrimidin-4-yl)-1-(3-propoxybenzyl)pyridin-2 (11H)-one], with 1000 to 10000 nM.
In the case of `C#CCOc1cccc(Cn2cc(-c3cc(C(F)(F)F)nc(S(C)(=O)=O)n3)ccc2=O)c1` [Compound 115, 5-(2-(methylsulfonyl)-6-(trifluoromethyl)pyrimidin-4-yl)-1-(3-(prop-2-yn-1-yloxy)benzyl) pyridin-2 (1H)-one], the concentration for a half-maximal effect (EC50) was 1 to 1000 nM.
Take `C[S+]([O-])c1nc(-c2ccc(=O)n(Cc3ccc(OC(F)(F)F)cc3)c2)cc(C(F)(F)F)n1` (stereo not drawn) [Compound 116, 5-(2-(methylsulfinyl)-6-(trifluoromethyl)pyrimidin-4-yl)-1-(4-(trifluoromethoxy)benzyl)pyridin-2 (1H)-one]: the half-maximal effective concentration (EC50) was in the range of 1000 to 10000 nM.
As for `CS(=O)(=O)c1nc(-c2ccc(=O)n(Cc3ccc(OC(F)(F)F)cc3)c2)cc(C(F)(F)F)n1` [Compound 117, 5-(2-(methylsulfonyl)-6-(trifluoromethyl)pyrimidin-4-yl)-1-(4-(trifluoromethoxy)benzyl)pyridin-2 (1H)-one], the EC50 was 1000 to 20000 nM.
In the case of `CS(=O)(=O)c1nc(-c2ccc(=O)n(Cc3cccc(C#N)c3)c2)cc(C(F)(F)F)n1` [Compound 118, 3-((5-(2-(methylsulfonyl)-6-(trifluoromethyl)pyrimidin-4-yl)-2-oxopyridin-1 (2H)-yl)methyl)benzonitrile], the half-maximal effective concentration (EC50) was 1000 to 20000 nM.
Turning to `CS(=O)(=O)c1nc(-c2ccc(=O)n(Cc3ccc(C#N)cc3)c2)cc(C(F)(F)F)n1` [Compound 119, 4-((5-(2-(methylsulfonyl)-6-(trifluoromethyl)pyrimidin-4-yl)-2-oxopyridin-1 (2H)-yl)methyl)benzonitrile], the half-maximal effective concentration (EC50) is 1000 to 10000 nM.
The same measure, in the same setting: then `C#Cc1cccc(Cn2cc(-c3cc(C(F)(F)F)nc(S(C)(=O)=O)n3)ccc2=O)c1` [Compound 120, 1-(3-ethynylbenzyl)-5-(2-(methylsulfonyl)-6-(trifluoromethyl)pyrimidin-4-yl) pyridin-2 (1H)-one], with 1 to 1000 nM; and `C#Cc1cccc(Cn2cc(-c3cc(C(F)(F)F)nc([S+](C)[O-])n3)ccc2=O)c1` (stereo not drawn) [Compound 121, 1-(3-ethynylbenzyl)-5-(2-(methylsulfinyl)-6-(trifluoromethyl)pyrimidin-4-yl)pyridin-2 (1H)-one], with 1 to 1000 nM; and `C#Cc1ccc(Cn2cc(-c3cc(C(F)(F)F)nc(S(C)(=O)=O)n3)ccc2=O)cc1` [Compound 122, 1-(4-ethynylbenzyl)-5-(2-(methylsulfonyl)-6-(trifluoromethyl)pyrimidin-4-yl)pyridin-2 (1H)-one], with 1 to 1000 nM.
The same measure, in the same setting: the same measure for `CS(=O)(=O)c1nc(-c2ccc(=O)n(Cc3ccc(N=[N+]=[N-])cc3)c2)cc(C(F)(F)F)n1` [Compound 123, 1-(4-azidobenzyl)-5-(2-(methylsulfonyl)-6-(trifluoromethyl)pyrimidin-4-yl)pyridin-2 (1H)-one]: under 100000 nM; for `CS(=O)(=O)c1nc(-c2ccc(=O)n(Cc3ccc(Cl)cc3F)c2)cc(C(F)(F)F)n1` [Compound 124, 1-(4-chloro-2-fluorobenzyl)-5-(2-(methylsulfonyl)-6-(trifluoromethyl)pyrimidin-4-yl)pyridin-2 (1H)-one]: 1 to 1000 nM; for `C[S+]([O-])c1nc(-c2ccc(=O)n(Cc3ccc(Cl)cc3F)c2)cc(C(F)(F)F)n1` (stereo not drawn) [Compound 125, 1-(4-chloro-2-fluorobenzyl)-5-(2-(methylsulfinyl)-6-(trifluoromethyl)pyrimidin-4-yl)pyridin-2 (1H)-one]: 1000 to 10000 nM.
In the case of `COc1ccc(Cn2cc(-c3cc(C(F)(F)F)nc(S(C)(=O)=O)n3)ccc2=O)c(Cl)c1` [Compound 126, 1-(2-chloro-4-methoxybenzyl)-5-(2-(methylsulfonyl)-6-(trifluoromethyl)pyrimidin-4-yl)pyridin-2 (1H)-one], the EC50 lay in the range of 1 to 1000 nM.
Same read-out and setting: then `COc1ccc(Cn2cc(-c3cc(C(F)(F)F)nc(S(C)(=O)=O)n3)ccc2=O)cc1OC` [Compound 127, 1-(3,4-dimethoxybenzyl)-5-(2-(methylsulfonyl)-6-(trifluoromethyl)pyrimidin-4-yl)pyridin-2 (1H)-one], with 1 to 1000 nM.
As to `COc1ccc(Cn2cc(-c3cc(C(F)(F)F)nc([S+](C)[O-])n3)ccc2=O)cc1OC` (stereo not drawn) [Compound 128, 1-(3,4-dimethoxybenzyl)-5-(2-(methylsulfinyl)-6-(trifluoromethyl)pyrimidin-4-yl)pyridin-2 (1H)-one], the concentration for a half-maximal effect (EC50) is 1 to 1000 nM.

Usually EC50 stands for the concentration that produces a half-maximal response.
